The NIST ThermoML archive (doi:10.1016/j.jct.2015.10.013)
Several values for one entry are separate records, joined by “and”; a condition that tells them apart may be missing. Equal values may be shown once.

Experiments:
[1] = Crystal, Calculated from knudsen effusion weight loss
[2] = molar enthalpy of vaporization or sublimation; conditions: 298.15 K; Crystal; Static calorimetry

CN1c2ccccc2Sc2ccccc21 [10-methylphenothiazine]
[1]
Conditions	vapor or sublimation pressure
337.16 K	9.9e-05 kPa and 9.8e-05 kPa and 9.7e-05 kPa
339.27 K	0.000127 kPa and 0.000128 kPa and 0.000124 kPa
341.16 K	0.000156 kPa and 0.000152 kPa
343.16 K	0.000187 kPa and 0.000186 kPa and 0.000188 kPa
345.25 K	0.000242 kPa and 0.000237 kPa and 0.000246 kPa
347.15 K	0.000294 kPa and 0.000295 kPa and 0.000286 kPa
349.16 K	0.000354 kPa and 0.000353 kPa and 0.000361 kPa
351.26 K	0.000456 kPa and 0.000445 kPa and 0.00046 kPa
353.16 K	0.000551 kPa and 0.000553 kPa and 0.000539 kPa
355.16 K	0.000655 kPa and 0.000671 kPa
357.26 K	0.000853 kPa and 0.00084 kPa and 0.000822 kPa
359.15 K	0.001002 kPa and 0.001018 kPa and 0.00102 kPa

Conditions	molar enthalpy [kcal/mol]
[2]	24.8
